Active and inactive are the calls of the source. The calls are words filed in the database; no cut-off is given here.
How the values were obtained:
[1] = target: Amyloid-beta precursor protein (Homo sapiens) (UniProt P05067); test: Inhibition of HFIP-pretreated amyloid beta (1 to 42) (unknown origin) aggregation at 10 uM after 36 to 48 hrs by thioflavin-T fluorescence assay relative to control; conditions: time 36-48 hrs
[2] = target: Acetylcholinesterase (Electrophorus electricus) (UniProt O42275); test: Inhibition of electric eel AChE at 10 uM using acetylthiocholine as substrate preincubated for 5 mins followed by substrate addition and measured after 5 mins by Ellman's method relative to control; conditions: time 10.0 min
Chain of Acetylcholinesterase (Electrophorus electricus) (O42275 24-633 limits assumed): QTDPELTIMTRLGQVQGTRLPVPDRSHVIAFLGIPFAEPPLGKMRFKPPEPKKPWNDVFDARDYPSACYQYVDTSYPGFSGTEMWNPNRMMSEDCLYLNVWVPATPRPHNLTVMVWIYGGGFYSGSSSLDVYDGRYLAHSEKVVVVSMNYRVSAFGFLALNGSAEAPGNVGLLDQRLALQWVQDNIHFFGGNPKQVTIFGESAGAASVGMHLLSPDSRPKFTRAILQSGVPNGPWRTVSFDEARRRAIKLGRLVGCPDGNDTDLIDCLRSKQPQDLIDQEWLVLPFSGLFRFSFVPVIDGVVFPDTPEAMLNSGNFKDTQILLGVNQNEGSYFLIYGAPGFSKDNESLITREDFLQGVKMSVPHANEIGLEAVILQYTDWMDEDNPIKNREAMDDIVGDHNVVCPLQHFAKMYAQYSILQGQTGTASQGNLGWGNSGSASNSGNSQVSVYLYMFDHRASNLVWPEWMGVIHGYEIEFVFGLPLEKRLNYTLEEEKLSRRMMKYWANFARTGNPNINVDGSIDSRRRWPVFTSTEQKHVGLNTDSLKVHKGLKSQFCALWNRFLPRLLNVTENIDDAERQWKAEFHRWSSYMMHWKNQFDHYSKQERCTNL

Beta-secretase 1 [3] = target: T1, Beta-secretase 1 (Homo sapiens, UniProt P56817); conditions: dose 50.0 µM, time 60.0 min
T1 sequence (P56817 whole entry): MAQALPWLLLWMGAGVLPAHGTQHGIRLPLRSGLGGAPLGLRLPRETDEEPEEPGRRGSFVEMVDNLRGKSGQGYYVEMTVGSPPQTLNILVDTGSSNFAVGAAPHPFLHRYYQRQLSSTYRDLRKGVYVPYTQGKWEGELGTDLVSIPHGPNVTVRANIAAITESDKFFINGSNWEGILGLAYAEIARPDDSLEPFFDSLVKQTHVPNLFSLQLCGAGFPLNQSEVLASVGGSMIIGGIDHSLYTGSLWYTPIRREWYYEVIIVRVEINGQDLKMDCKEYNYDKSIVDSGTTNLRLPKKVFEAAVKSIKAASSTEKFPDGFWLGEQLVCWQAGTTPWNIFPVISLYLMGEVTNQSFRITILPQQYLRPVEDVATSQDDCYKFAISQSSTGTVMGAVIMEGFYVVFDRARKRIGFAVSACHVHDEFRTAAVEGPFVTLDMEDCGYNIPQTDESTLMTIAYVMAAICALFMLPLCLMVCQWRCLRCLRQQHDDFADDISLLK

[4] = target: T2, Sodium- and chloride-dependent GABA transporter 1 (Mus musculus, UniProt P31648); test: Inhibition of mouse GAT1 expressed in HEK293 cell line assessed as reduction in [3H]GABA uptake incubated for 10 mins; assay type: cell-based
GABA transporter 4 = target: T3, GABA transporter 4 (Mus musculus, UniProt P31650); test: Inhibition of mouse GAT4 expressed in HEK293 cell line assessed as reduction in [3H]GABA uptake incubated for 10 mins; assay type: cell-based
T3 sequence (P31650 whole entry): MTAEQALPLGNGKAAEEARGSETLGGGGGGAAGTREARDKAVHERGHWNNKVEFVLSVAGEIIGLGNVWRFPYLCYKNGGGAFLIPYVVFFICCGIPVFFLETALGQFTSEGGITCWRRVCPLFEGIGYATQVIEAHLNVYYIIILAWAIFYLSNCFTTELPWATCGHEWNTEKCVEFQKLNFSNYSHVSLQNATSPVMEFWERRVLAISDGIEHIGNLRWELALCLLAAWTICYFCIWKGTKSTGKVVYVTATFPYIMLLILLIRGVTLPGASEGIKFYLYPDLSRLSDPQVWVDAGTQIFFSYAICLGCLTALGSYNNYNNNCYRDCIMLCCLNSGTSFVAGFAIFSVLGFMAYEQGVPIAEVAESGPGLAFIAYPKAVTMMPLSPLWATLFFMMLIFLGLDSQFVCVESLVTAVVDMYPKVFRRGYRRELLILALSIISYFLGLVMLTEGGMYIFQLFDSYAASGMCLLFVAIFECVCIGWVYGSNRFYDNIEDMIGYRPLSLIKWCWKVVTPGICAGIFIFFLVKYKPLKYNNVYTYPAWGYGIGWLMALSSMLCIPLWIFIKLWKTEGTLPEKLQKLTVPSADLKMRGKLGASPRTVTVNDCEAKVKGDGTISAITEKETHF

[5] = target: T2, Sodium- and chloride-dependent GABA transporter 1; test: Inhibition of NO711 binding to mouse GAT1 expressed in HEK cell membranes incubated for 40 mins in presence of NO711 by LC-ESI-MS/MS analysis; parameters: species or system Membrane
[6] = target: Microtubule-associated protein tau (Homo sapiens) (UniProt P10636); test: Inhibition of tau aggregation (unknown origin) at 10 uM after 72 hrs by thioflavin-T fluorometric assay relative to control
[7] = Neurotoxicity against mouse HT22 cells assessed as cell viability at 10 uM incubated for 24 hrs by MTT assay; assay type: cell-based, HT-22; conditions: for Activity: ht-22, 24 h, 10 µM
Cholinesterase [8] = target: Cholinesterase (Equus caballus, UniProt P81908)
Chain of Cholinesterase (Equus caballus, UniProt P81908) (P81908 whole entry): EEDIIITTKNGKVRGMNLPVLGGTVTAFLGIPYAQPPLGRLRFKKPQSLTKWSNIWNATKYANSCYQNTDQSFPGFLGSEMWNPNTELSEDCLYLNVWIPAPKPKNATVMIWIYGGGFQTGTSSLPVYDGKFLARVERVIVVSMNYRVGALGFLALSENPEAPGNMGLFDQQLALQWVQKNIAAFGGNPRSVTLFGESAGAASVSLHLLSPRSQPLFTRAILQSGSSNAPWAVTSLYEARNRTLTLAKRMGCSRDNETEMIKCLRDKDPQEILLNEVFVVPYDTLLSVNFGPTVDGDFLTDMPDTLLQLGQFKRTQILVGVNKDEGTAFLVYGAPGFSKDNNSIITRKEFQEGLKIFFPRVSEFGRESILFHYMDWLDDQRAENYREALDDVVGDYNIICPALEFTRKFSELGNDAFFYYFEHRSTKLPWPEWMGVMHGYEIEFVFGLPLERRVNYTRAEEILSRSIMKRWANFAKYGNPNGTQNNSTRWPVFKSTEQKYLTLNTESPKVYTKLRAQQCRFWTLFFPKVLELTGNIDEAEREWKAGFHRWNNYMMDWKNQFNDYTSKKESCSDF
Description: Inhibition of equine serum BuChE using butyrylthiocholine as substrate preincubated for 5 mins followed by substrate addition and measured after 5 mins by Ellman's method

Cholinesterase [9] = target: T4, Cholinesterase (Homo sapiens, UniProt P06276)
T4 sequence (P06276 whole entry): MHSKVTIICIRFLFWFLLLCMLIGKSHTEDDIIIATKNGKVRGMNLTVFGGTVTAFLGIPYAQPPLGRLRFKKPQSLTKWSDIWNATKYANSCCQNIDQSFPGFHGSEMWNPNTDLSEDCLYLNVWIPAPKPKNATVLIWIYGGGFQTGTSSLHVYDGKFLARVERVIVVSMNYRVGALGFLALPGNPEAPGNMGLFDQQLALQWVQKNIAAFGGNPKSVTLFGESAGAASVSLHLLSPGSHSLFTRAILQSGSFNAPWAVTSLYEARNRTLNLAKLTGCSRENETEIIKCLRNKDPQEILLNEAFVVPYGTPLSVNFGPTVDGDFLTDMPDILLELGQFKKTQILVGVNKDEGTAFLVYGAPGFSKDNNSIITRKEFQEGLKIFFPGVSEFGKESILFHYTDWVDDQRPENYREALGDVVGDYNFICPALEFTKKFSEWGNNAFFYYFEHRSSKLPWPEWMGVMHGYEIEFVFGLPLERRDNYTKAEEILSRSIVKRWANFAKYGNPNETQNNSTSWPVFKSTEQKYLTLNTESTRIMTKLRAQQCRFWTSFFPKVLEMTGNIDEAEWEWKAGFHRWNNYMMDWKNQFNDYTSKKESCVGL
Description: Inhibition of human BuchE using butyrylthiocholine as substrate preincubated for 5 mins followed by substrate addition and measured after 5 mins by Ellman's method

Acetylcholinesterase = Acetylcholinesterase (Electrophorus electricus, UniProt O42275); test: Inhibition of electric eel AChE using acetylthiocholine as substrate preincubated for 5 mins followed by substrate addition and measured after 5 mins by Ellman's method
Chain of Acetylcholinesterase (O42275 whole entry): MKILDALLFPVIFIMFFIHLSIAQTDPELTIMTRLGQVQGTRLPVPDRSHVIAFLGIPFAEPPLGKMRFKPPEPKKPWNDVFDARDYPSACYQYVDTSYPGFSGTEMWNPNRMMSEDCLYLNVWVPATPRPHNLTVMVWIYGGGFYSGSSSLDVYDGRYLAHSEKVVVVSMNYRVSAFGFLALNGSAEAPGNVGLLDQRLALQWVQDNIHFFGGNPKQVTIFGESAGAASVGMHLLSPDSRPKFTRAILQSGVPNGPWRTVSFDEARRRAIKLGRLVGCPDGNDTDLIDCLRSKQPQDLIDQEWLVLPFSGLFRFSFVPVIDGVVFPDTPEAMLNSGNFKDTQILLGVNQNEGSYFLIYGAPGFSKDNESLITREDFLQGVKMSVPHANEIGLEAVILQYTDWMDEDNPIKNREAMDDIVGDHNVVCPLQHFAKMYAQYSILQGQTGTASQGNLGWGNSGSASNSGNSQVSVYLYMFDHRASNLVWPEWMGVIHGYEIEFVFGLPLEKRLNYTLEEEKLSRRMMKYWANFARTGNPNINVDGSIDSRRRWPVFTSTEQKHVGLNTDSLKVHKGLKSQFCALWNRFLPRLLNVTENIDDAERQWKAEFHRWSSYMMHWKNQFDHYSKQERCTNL

[10] = target: Cholinesterase (Equus caballus) (UniProt P81908); test: Noncompetitive inhibition of equine serum BuChE assessed as decrease in Vmax with constant Km using varying concentrations of BTC as substrate by Lineweaver-burk and Cornish-Bowden plot analysis
Chain of Cholinesterase (Equus caballus) (P81908 whole entry): as the sequence (P81908 whole entry) above

[11] = target: T5, GABA transporter 4 (Mus musculus) (UniProt P31650); test: Inhibition of mouse GAT3 expressed in HEK293 cell line assessed as reduction in [3H]GABA uptake at 100 uM incubated for 10 mins relative to control; assay type: cell-based
T5 sequence (whole entry): T3 sequence (P31650 whole entry)

[12] = target: T5, GABA transporter 4 (Mus musculus); test: Inhibition of mouse GAT4 expressed in HEK293 cell line assessed as reduction in [3H]GABA uptake at 100 uM incubated for 10 mins relative to control; assay type: cell-based
[13] = target: Sodium- and chloride-dependent GABA transporter 1 (Mus musculus) (UniProt P31648); test: Inhibition of NO711 binding to mouse GAT1 expressed in HEK cell membranes at 100 uM incubated for 40 mins in presence of NO711 by LC-ESI-MS/MS analysis relative to control; conditions: Membrane
[14] = Neurotoxicity against mouse HT22 cells assessed as cell viability at 30 uM incubated for 24 hrs by MTT assay; assay type: cell-based, HT-22; conditions: for Activity: ht-22, 24 h, 30 µM
[15] = Hepatotoxicity in human HepG2 cells at 50 to 100 uM incubated for 72 hrs by MTS assay; assay type: cell-based; conditions: hepg2, 72 h, dose 50-100 µM
[16] = Hepatotoxicity in human HepG2 cells at 1 uM incubated for 72 hrs by MTS assay; assay type: cell-based; conditions: hepg2, 72 h
[17] = Metabolic stability in human liver microsomes assessed as parent compound remaining after 120 mins in presence of NADPH regeneration system by UPLC/MS anlaysis; assay type: ADME, Microsome; conditions: read-out: Stabilty
Cytochrome P450 3A4 = Cytochrome P450 3A4 (Homo sapiens, UniProt P08684); test: Inhibition of CYP3A4 (unknown origin) at 10 uM; assay type: ADME
Cytochrome P450 2D6 = Cytochrome P450 2D6 (Homo sapiens, UniProt P10635); test: Inhibition of CYP2D6 (unknown origin) at 10 uM; assay type: ADME
Beta-secretase 1 [18] = target: T1, Beta-secretase 1
[19] = target: T6, Sodium- and chloride-dependent GABA transporter 3 (Homo sapiens, UniProt P48066); test: Inhibition of human GAT3 expressed in COS-7 cells assessed as reduction in [2H6]GABA uptake preincubated for 25 mins followed by [2H6]GABA addition and measured after 6 mins by LC-MS/MS analysis; assay type: cell-based
T6 sequence (P48066 whole entry): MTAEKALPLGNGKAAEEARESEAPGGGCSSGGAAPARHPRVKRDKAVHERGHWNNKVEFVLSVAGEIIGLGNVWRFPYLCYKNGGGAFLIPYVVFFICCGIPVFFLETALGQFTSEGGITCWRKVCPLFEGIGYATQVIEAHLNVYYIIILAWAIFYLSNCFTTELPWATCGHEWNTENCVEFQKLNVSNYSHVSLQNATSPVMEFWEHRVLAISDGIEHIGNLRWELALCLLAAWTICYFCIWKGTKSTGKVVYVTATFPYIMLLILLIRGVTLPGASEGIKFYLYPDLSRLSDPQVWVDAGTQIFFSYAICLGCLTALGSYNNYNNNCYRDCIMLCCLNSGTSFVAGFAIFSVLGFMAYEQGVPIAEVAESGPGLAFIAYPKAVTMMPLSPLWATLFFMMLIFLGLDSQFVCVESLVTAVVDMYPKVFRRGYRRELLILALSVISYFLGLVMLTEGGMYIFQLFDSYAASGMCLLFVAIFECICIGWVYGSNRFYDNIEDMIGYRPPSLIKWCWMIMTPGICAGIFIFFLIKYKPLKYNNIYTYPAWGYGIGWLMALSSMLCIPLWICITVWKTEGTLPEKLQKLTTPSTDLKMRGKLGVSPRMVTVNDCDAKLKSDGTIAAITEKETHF

Cholinesterase [20] = target: T4, Cholinesterase; test: Inhibition of human BuchE at 1 uM using butyrylthiocholine as substrate preincubated for 5 mins followed by substrate addition and measured after 5 mins by Ellman's method relative to control; conditions: time 10.0 min
[21] = target: Sodium- and chloride-dependent GABA transporter 1 (Mus musculus) (UniProt P31648); test: Inhibition of mouse GAT1 expressed in HEK293 cell line assessed as reduction in [3H]GABA uptake at 100 uM incubated for 10 mins relative to control; assay type: cell-based
[22] = target: T7, GABA transporter 3 (Mus musculus) (UniProt P31649); test: Inhibition of mouse GAT2 expressed in HEK293 cell line assessed as reduction in [3H]GABA uptake at 100 uM incubated for 10 mins relative to control; assay type: cell-based
T7 sequence (whole entry): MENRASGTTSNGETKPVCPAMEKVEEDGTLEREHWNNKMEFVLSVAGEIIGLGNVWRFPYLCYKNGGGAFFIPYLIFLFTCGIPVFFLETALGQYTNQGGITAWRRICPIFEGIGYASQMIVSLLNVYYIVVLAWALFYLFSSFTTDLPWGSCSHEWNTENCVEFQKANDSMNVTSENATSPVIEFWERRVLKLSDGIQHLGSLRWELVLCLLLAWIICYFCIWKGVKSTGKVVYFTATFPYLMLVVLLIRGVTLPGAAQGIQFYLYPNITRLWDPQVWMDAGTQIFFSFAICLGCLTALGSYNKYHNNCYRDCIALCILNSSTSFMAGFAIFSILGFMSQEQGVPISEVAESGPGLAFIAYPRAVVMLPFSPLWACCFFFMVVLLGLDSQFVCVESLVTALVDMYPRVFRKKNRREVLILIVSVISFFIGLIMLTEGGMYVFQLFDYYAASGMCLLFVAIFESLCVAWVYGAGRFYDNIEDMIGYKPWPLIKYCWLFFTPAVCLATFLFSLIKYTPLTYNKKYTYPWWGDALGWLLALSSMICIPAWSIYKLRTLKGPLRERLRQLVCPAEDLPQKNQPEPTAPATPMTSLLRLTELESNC

Chain of Amyloid-beta precursor protein (Homo sapiens) (P05067 whole entry): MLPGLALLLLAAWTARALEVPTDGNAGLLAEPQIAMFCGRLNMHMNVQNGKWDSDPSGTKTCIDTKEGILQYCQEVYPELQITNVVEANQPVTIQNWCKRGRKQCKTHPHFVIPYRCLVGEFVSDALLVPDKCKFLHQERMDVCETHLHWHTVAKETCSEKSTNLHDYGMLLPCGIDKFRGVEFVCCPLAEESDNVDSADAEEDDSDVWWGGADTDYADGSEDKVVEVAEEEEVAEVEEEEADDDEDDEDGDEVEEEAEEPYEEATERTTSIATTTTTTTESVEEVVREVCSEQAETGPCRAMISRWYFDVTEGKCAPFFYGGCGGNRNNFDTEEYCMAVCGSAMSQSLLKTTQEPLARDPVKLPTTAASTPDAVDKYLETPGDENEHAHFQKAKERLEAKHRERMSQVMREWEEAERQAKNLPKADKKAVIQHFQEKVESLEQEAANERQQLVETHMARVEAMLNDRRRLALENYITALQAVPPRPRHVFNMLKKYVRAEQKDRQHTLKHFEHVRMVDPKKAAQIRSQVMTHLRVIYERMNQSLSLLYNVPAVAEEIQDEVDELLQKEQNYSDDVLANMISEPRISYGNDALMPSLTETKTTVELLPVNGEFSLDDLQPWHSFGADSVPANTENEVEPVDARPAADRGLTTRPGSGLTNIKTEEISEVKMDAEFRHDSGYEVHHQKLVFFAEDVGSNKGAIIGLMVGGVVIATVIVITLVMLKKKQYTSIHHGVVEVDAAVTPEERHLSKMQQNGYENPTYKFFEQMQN

SMILES	inhibition [1] [%]	inhibition [2] [%]	inhibition (Beta-secretase 1 [3]) [%]	IC50 [4] [µM]	IC50 [5] [µM]	Activity [7]	IC50 (Cholinesterase [8]) [µM]	IC50 (Cholinesterase [9]) [µM]	IC50 (Beta-secretase 1 [18]) [µM]	further results
O[C@@H](CNCc1ccccc1)[C@H](Cc1ccccc1)NCCC(c1ccccc1)c1ccccc1	34.7	< 10	58	7.59	30.2	Toxic	0.65	0.63	–	IC50 (GABA transporter 4): 5.5 µM; inhibition [6]: 85.8%
CC(C)(C)c1cccc(CNC[C@@H](O)[C@H](Cc2ccccc2)NC(=O)C(c2ccccc2)c2ccccc2)c1	20.5	–	–	11	–	Non-Toxic	0.06	0.02	5.9	IC50 (Acetylcholinesterase): 2.86 µM; inhibition [10]: Active; inhibition [11]: 55%; inhibition [12]: 55%; inhibition [13]: 82%; Activity [14]: Toxic; Activity [15]: Toxic; Activity [16]: Non-Toxic; remaining at 2 h [17]: 79.6%; inhibition (INH) (Cytochrome P450 3A4): Active; inhibition (INH) (Cytochrome P450 2D6): Active
CC(C)(C)CNC[C@@H](O)[C@H](Cc1ccccc1)NCC(c1ccccc1)c1ccccc1	34.7	< 10	63.9	26.3	85.1	–	0.59	0.19	–	IC50 (GABA transporter 4): 9.77 µM
CC(C)(C)c1ccc(CNCC(O)[C@H](Cc2ccccc2)NC(=O)CC(c2ccccc2)c2ccccc2)cc1 (single isomer, unassigned)	20.5	< 10	–	–	–	Non-Toxic	0.17	0.88	6.2	Activity [14]: Toxic
CC(C)c1cccc(CNC[C@@H](O)[C@H](Cc2ccccc2)NC(=O)CC(c2ccccc2)c2ccccc2)c1	20.5	24	–	–	–	–	0.65	0.5	4.6	Activity [15]: Toxic; Activity [16]: Non-Toxic; remaining at 2 h [17]: 67.9%; inhibition (INH) (Cytochrome P450 3A4): Active; inhibition (INH) (Cytochrome P450 2D6): Active
COc1ccc(C(/C=C/CN2CCC[C@H](C(=O)O)C2)(c2ccc(OC)cc2)c2ccc(OC)cc2)cc1	–	–	–	–	46.8	–	–	–	–	IC50 [19]: 1.59 µM
CC(C)c1cccc(CNC[C@@H](O)[C@H](Cc2ccccc2)NC(=O)C(c2ccccc2)c2ccccc2)c1	20.5	–	66	–	–	–	0.5	0.08	–	IC50 (Acetylcholinesterase): 5.13 µM
C[C@H](NC[C@@H](O)[C@H](Cc1ccccc1)NC(=O)CC(c1ccccc1)c1ccccc1)c1ccccc1	20.5	< 10	74.1	–	–	–	8.86	–	–	inhibition (Cholinesterase [20]): 36.4%; inhibition [21]: 59%; inhibition [22]: 51%; inhibition [11]: 69%; inhibition [12]: 55%; inhibition [13]: 66%; inhibition [6]: 73.1%; viability at 24 h, 10 µM ([7]; HT22 cells, read-out: Activity): 100%; viability at 24 h, 30 µM ([14]; HT22 cells, read-out: Activity): 50%
COc1ccc(C(OCCN2CCC[C@H](C(=O)O)C2)(c2ccc(OC)cc2)c2ccc(OC)cc2C)cc1	–	–	–	–	–	–	–	–	–	IC50 [19]: 3.16 µM
